The results in this text go back to ChEMBL document CHEMBL1201862, “PubChem BioAssay data set” (2004).

Common to all, as to assay: inhibition of tumour cell growth, NCI panel, 48 h
The subject of experiment [1] is MCF7.
Experiment [2] has as its system SF-295.
In experiment [3] the test system is RXF 393.
Experiment [4] relates to SK-MEL-2.
For experiment [5], the system named is NCI-H460.
Experiment [6] concerns NCI/ADR-RES.
Experiment [7] relates to MDA-N.
In experiment [8] the test system is EKVX.
The subject of experiment [9] is MDA-MB-231.
In experiment [10] the test system is NCI-H226.
Experiment [11] deals with PC-3.
The test system of experiment [12] is CAKI-1.
Experiment [13] relates to NCI-H522.
In experiment [14] the test system is A498.
Experiment [15] has as its system SF-268.
Experiment [16] deals with HOP-62.
Experiment [17] deals with KM-20L2.
Experiment [18] has as its system HOP-92.
Experiment [19] concerns DMS-273.
The test system of experiment [20] is M19-MEL.

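Test compounds were applied to cells in 96-well plates for 48 hours at 5 doses. The concentration for 50% growth inhibition is given as GI50.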 Calls of active or inactive are those of the source. Rule as the data show it: active = GI50 up to about 1.1 µM and inactive = higher. A value given as a limit tells only on which side of the number the result lay.

As to `COc1ccc(N2C(=O)C3c4[nH]c5c(C)cccc5c4C4CCC(C(C)(C)C)CC4C3C2=O)cc1` (centres undefined), the GI50 is 3.56 µM (inactive) in [1]; > 10 µM (inactive) in [2]; 3.36 µM (inactive) in experiment [3]; > 10 µM (inactive) in [4]; 2.83 µM (inactive) in experiment [5]; > 10 µM (inactive) in experiment [6]. For the same compound, the GI50 in [7] is > 10 µM (inactive); in experiment [8], 5.18 µM (inactive); in experiment [9], > 10 µM (inactive); in experiment [10] it was > 10 µM (inactive); in experiment [11] it was 3.61 µM (inactive); in experiment [12] it was > 10 µM (inactive). The GI50 in experiment [13] is > 10 µM (inactive); in experiment [14] it was > 10 µM (inactive); in experiment [15], 5.61 µM (inactive); in experiment [16], > 10 µM (inactive).

Take `O=[N+]([O-])c1ccccc1S(=O)(=O)c1ccccc1`: the GI50 in [17] is > 100 µM (inactive); in [18], 80.7 µM (inactive); in [2], > 100 µM (inactive); in [3], 77.8 µM (inactive); in [4] it was > 100 µM (inactive); in experiment [5], > 100 µM (inactive). For the same compound, the GI50 in experiment [19] is > 100 µM (inactive); in experiment [8], > 100 µM (inactive); in experiment [20] it was 39.4 µM (inactive); in experiment [10], 88.1 µM (inactive); in experiment [14] it was > 100 µM (inactive); in experiment [15], > 100 µM (inactive). In addition, the GI50 in experiment [16] was > 100 µM (inactive).

As for `COc1ccccc1-c1cc(O)c2ccc(C)nc2n1`, the GI50 in experiment [1] is 47.4 µM (inactive); in [18] it was 32.8 µM (inactive); in experiment [3], > 100 µM (inactive); in [4] it was > 100 µM (inactive); in [6] it was > 100 µM (inactive); in [8] it was 97.3 µM (inactive). Moreover, the GI50 in experiment [9] is > 100 µM (inactive); in [10], > 100 µM (inactive); in experiment [12] it was > 100 µM (inactive); in experiment [13] it was 56.6 µM (inactive); in [14], > 100 µM (inactive); in experiment [15], > 100 µM (inactive). The GI50 in [16] was > 100 µM (inactive).

In the case of `Cc1ccc(NC(=O)CC2Sc3ccccc3NC2=O)cc1C` (centres undefined), the GI50 in experiment [17] was > 100 µM (inactive); in [18], 26 µM (inactive); in experiment [2], > 100 µM (inactive); in experiment [3], 29.9 µM (inactive); in experiment [4], > 100 µM (inactive); in experiment [5], 58.6 µM (inactive). Also, the GI50 was 85.7 µM (inactive) in experiment [19]; > 100 µM (inactive) in experiment [8]; > 100 µM (inactive) in experiment [20]; 57.9 µM (inactive) in [10]; 85.9 µM (inactive) in [12]; > 100 µM (inactive) in experiment [13]. Further, the values for the GI50 in [14], in experiment [15] and in experiment [16] were 37.9 µM (inactive), 60 µM (inactive) and > 100 µM (inactive), respectively.

In the case of `Cc1ccc(S(=O)(=O)NCCCSCCO)cc1`, the GI50 was 32.8 µM (inactive) in [1]; 36.4 µM (inactive) in experiment [18]; > 100 µM (inactive) in [2]; > 100 µM (inactive) in [3]; 43.9 µM (inactive) in experiment [5]; > 100 µM (inactive) in experiment [6]. Besides, the GI50 in experiment [7] was 55 µM (inactive); in experiment [9], 27.7 µM (inactive); in experiment [10] it was 27.9 µM (inactive); in experiment [11], 30 µM (inactive); in experiment [13], > 100 µM (inactive); in experiment [14], > 100 µM (inactive). Besides, in [15], the GI50 was 10 µM (inactive).

On to `COc1cc(O)c2c(=O)c(O)c(-c3ccc(O)c(O)c3)oc2c1` [RHAMNETIN], for which the GI50 in [1] was 17.8 µM (inactive); in experiment [18], 10.5 µM (inactive); in experiment [2] it was 21.2 µM (inactive); in experiment [5] it was 4.25 µM (inactive); in [6], 8.55 µM (inactive); in experiment [7] it was 19.8 µM (inactive). Also, the GI50 was 10.2 µM (inactive) in experiment [8]; 10.7 µM (inactive) in [9]; 19.7 µM (inactive) in experiment [11]; 1.09 µM (active) in [12]; 3.15 µM (inactive) in experiment [13]; 3.68 µM (inactive) in experiment [14]. For the same compound, the results for the GI50 in experiment [15] and in experiment [16] were 7.26 µM (inactive) and 14.6 µM (inactive), respectively.

Regarding `CN(C(=O)C1=CCC2(CC1)OCCO2)c1ccccc1I`, the GI50 in experiment [1], in [18], in [2], in experiment [4], in experiment [5] and in experiment [6] was > 100 µM (inactive) in each case. For the same compound, the GI50 in [7], in experiment [8], in experiment [9], in [10], in [11] and in experiment [12] was > 100 µM (inactive) in each case. The GI50 in [13], in experiment [14] and in [16] was > 100 µM (inactive) in each case.

Take `C/C=C/CC(C)[C@@H](O)[C@H](NC)C(=O)O` (some centres undefined): the GI50 in experiment [17], in experiment [18], in experiment [2], in [3], in [4] and in [5] was > 100 µM (inactive) throughout. The GI50 in [19], in [8], in experiment [20], in [12], in [13] and in experiment [15] was > 100 µM (inactive) throughout. The GI50 in experiment [16] is > 100 µM (inactive).

With `COC(=O)CCC(=O)Nc1ccc(Cl)cc1C`, the GI50 in [17] was > 48.4 µM (inactive); in [18], > 60.8 µM (inactive); in experiment [2], > 100 µM (inactive); in experiment [3], > 63 µM (inactive); in experiment [4], > 47.8 µM (inactive); in experiment [5], > 100 µM (inactive). In addition, the GI50 was > 100 µM (inactive) in [19]; > 55.2 µM (inactive) in experiment [8]; > 100 µM (inactive) in [20]; > 52.6 µM (inactive) in experiment [10]; 23.4 µM (inactive) in [12]; 3.41 µM (inactive) in experiment [13]. Moreover, in [16], the GI50 is 39.4 µM (inactive).

Take `O=C(/C=C\c1ccc(/C=C/C(=O)Nc2cccc(C3=NCCCN3)c2)cc1)Nc1cccc(C2=NCCCN2)c1`: the GI50 in experiment [17] is > 56.4 µM (inactive); in [1], 16.3 µM (inactive); in [18], > 100 µM (inactive); in experiment [2], > 100 µM (inactive); in experiment [3] it was > 100 µM (inactive); in experiment [4], > 62.8 µM (inactive). Besides, the GI50 was > 100 µM (inactive) in [5]; > 100 µM (inactive) in experiment [19]; > 100 µM (inactive) in experiment [6]; > 100 µM (inactive) in [20]; 42.8 µM (inactive) in experiment [13]; > 74.3 µM (inactive) in [14]. The GI50 in experiment [16] is 65.8 µM (inactive).

Turning to `CC(=O)Nc1ccc2c3c(cc(O)c2c1)N(C(=O)CCCCCC(=O)Nc1ccc2c4c(cc(O)c2c1)N(C(=O)OC(C)(C)C)CC4CCl)CC3CCl` (centres undefined), the GI50 in [1] is 0.233 µM (active); in experiment [18], 3.59 µM (inactive); in experiment [2], 5.73 µM (inactive); in [3], 1.24 µM (inactive); in [4], 1.76 µM (inactive); in [5], 0.625 µM (active). Moreover, the GI50 in experiment [6] was > 100 µM (inactive); in experiment [7], 1.53 µM (inactive); in [8] it was 41.9 µM (inactive); in experiment [9], 4.33 µM (inactive); in experiment [10], 1.55 µM (inactive); in experiment [11], 2.99 µM (inactive). Besides, the GI50 in [12] was > 100 µM (inactive); in experiment [13], 1.05 µM (active); in [14], 1.64 µM (inactive); in experiment [15], 0.646 µM (active); in experiment [16], 1.81 µM (inactive).

Turning to `CC1CC/C(=C\c2ccc(F)cc2)C(=O)/C1=C/c1ccc(F)cc1` (centres undefined), the GI50 in [1] was 4.21 µM (inactive); in experiment [2], 2.84 µM (inactive); in experiment [3], 3.17 µM (inactive); in experiment [4], 4.83 µM (inactive); in [6] it was 2 µM (inactive); in [7] it was 3.54 µM (inactive). Besides, the GI50 in experiment [8] was 3.67 µM (inactive); in [9], 2.66 µM (inactive); in experiment [10], 7.03 µM (inactive); in experiment [11], 5.2 µM (inactive); in [12] it was 3.85 µM (inactive); in [14], 12.6 µM (inactive). The GI50 in experiment [15] was 3.6 µM (inactive).

On to `CCN(CC)CCC(=O)c1ccccc1`, for which the GI50 in experiment [17] was 21.5 µM (inactive); in experiment [18], 13.1 µM (inactive); in experiment [3] it was 20.4 µM (inactive); in experiment [4], > 100 µM (inactive); in experiment [5], 30.8 µM (inactive); in experiment [19], 18.5 µM (inactive). In addition, the GI50 in experiment [8] is 60 µM (inactive); in [20], 25.6 µM (inactive); in experiment [10], > 100 µM (inactive); in experiment [15], 17.8 µM (inactive); in experiment [16], > 100 µM (inactive).
